Tested on: Crude diglycosidase
Assay: Examination of substrate concentration in the conversion into isoflavone aglycons by diglycosidase using soybean materials;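 note: percent of the isoflavone family total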
Assay type: biochemical, Penicillium multicolor IAM7153
Description: Into 20 mM acetate buffer of pH 4.0 was suspended 0.1 g, 0.25 g, 0.5 g, 1.0 g, or 1.5 g of each of various soybean materials (roasted soy flour (manufactured by Fuji Shokuryo K.K.), soymilk (manufactured by Gitoh Shokuhin K.K.), defatted soybean (manufactured by Fuji Seiyu K.K.), concentrated soybean protein (manufactured by Fuji Seiyu K.K.)). The pH of the suspension was measured and the liquid volume was adjusted to 4.5 mL while the pH was adjusted to 4.0 with 1N hydrochloric acid. An enzyme solution wherein diglycosidase activity of crude diglycosidase was adjusted to 1.88 AU/mL was added thereto in an amount of 0.5 mL, whereby the final liquid volume was 5.0 mL. Namely, the ratio of the soybean material in the reaction mixture was 2%, 5%, 10%, 20%, or 30% (w/v). The whole was reacted at 55° C. under shaking. To 5 mL of the reaction mixture was added 7 mL of ethanol after 0, 1, 3, and 6 hours of the reaction. After ultrasonication, the mixture was thoroughly mixed. It was subjected to centrifugal separation at 2,000 rpm and room temperature for 5 minutes. Then, […] of the supernatant was placed in a 1.5 mL microtube and was subjected to centrifugal separation at 15,000 rpm and 4° C. for 10 minutes. The supernatant was filtered through a filter and each sample was suitably diluted by a factor of 1 to 6 depending on the substrate concentration. Fifty μL of the diluted solution was analyzed by HLPC (Tables 27 to 38).

[1] = concentrated soybean protein, substrate concentration 2%, heat treatment of enzyme no, reaction time 0 h
[2] = concentrated soybean protein, substrate concentration 2%, heat treatment of enzyme no, reaction time 1 h
[3] = concentrated soybean protein, substrate concentration 2%, heat treatment of enzyme no, reaction time 3 h
[4] = concentrated soybean protein, substrate concentration 2%, heat treatment of enzyme no, reaction time 6 h
[5] = concentrated soybean protein, substrate concentration 2%, heat treatment of enzyme yes, reaction time 6 h
[6] = concentrated soybean protein, substrate concentration 5%, heat treatment of enzyme no, reaction time 0 h
[7] = concentrated soybean protein, substrate concentration 5%, heat treatment of enzyme no, reaction time 1 h
[8] = concentrated soybean protein, substrate concentration 5%, heat treatment of enzyme no, reaction time 3 h
[9] = concentrated soybean protein, substrate concentration 5%, heat treatment of enzyme no, reaction time 6 h
[10] = concentrated soybean protein, substrate concentration 5%, heat treatment of enzyme yes, reaction time 6 h
[11] = concentrated soybean protein, substrate concentration 10%, heat treatment of enzyme no, reaction time 0 h
[12] = concentrated soybean protein, substrate concentration 10%, heat treatment of enzyme no, reaction time 1 h
[13] = concentrated soybean protein, substrate concentration 10%, heat treatment of enzyme no, reaction time 3 h
[14] = concentrated soybean protein, substrate concentration 10%, heat treatment of enzyme no, reaction time 6 h
[15] = concentrated soybean protein, substrate concentration 10%, heat treatment of enzyme yes, reaction time 6 h
[16] = concentrated soybean protein, substrate concentration 20%, heat treatment of enzyme no, reaction time 0 h
[17] = concentrated soybean protein, substrate concentration 20%, heat treatment of enzyme no, reaction time 1 h
[18] = concentrated soybean protein, substrate concentration 20%, heat treatment of enzyme no, reaction time 3 h
[19] = concentrated soybean protein, substrate concentration 20%, heat treatment of enzyme no, reaction time 6 h
[20] = concentrated soybean protein, substrate concentration 20%, heat treatment of enzyme yes, reaction time 6 h
[21] = concentrated soybean protein, substrate concentration 30%, heat treatment of enzyme no, reaction time 0 h
[22] = concentrated soybean protein, substrate concentration 30%, heat treatment of enzyme no, reaction time 1 h
[23] = concentrated soybean protein, substrate concentration 30%, heat treatment of enzyme no, reaction time 3 h
[24] = concentrated soybean protein, substrate concentration 30%, heat treatment of enzyme no, reaction time 6 h
[25] = concentrated soybean protein, substrate concentration 30%, heat treatment of enzyme yes, reaction time 6 h

Measured: Decomposition efficiency: ratio of each glycoside/aglycon within its isoflavone family

O=C(O)CC(=O)OC[C@H]1O[C@@H](Oc2ccc3c(=O)c(-c4ccc(O)cc4)coc3c2)[C@H](O)[C@@H](O)[C@@H]1O [malonydaidzin]
not detected: [1] | [2] | [3] | [4] | [5] | [6] | [7] | [8] | [9] | [10] | [11] | [12] | [13] | [14] | [15] | [16] | [17] | [18] | [19] | [20] | [21] | [22] | [23] | [24] | [25]

CC(=O)OC[C@H]1O[C@@H](Oc2ccc3c(=O)c(-c4ccc(O)cc4)coc3c2)[C@H](O)[C@@H](O)[C@@H]1O [acetyl-daidzin]
not detected: soymilk, substrate concentration 2%, heat treatment of enzyme no, reaction time 0 h | soymilk, substrate concentration 2%, heat treatment of enzyme no, reaction time 1 h | soymilk, substrate concentration 2%, heat treatment of enzyme no, reaction time 3 h | soymilk, substrate concentration 2%, heat treatment of enzyme no, reaction time 6 h | soymilk, substrate concentration 2%, heat treatment of enzyme yes, reaction time 6 h | soymilk, substrate concentration 5%, heat treatment of enzyme no, reaction time 0 h | soymilk, substrate concentration 5%, heat treatment of enzyme no, reaction time 1 h | soymilk, substrate concentration 5%, heat treatment of enzyme no, reaction time 3 h | soymilk, substrate concentration 5%, heat treatment of enzyme no, reaction time 6 h | soymilk, substrate concentration 5%, heat treatment of enzyme yes, reaction time 6 h | soymilk, substrate concentration 10%, heat treatment of enzyme no, reaction time 0 h | soymilk, substrate concentration 10%, heat treatment of enzyme no, reaction time 1 h | soymilk, substrate concentration 10%, heat treatment of enzyme no, reaction time 3 h | soymilk, substrate concentration 10%, heat treatment of enzyme no, reaction time 6 h | soymilk, substrate concentration 10%, heat treatment of enzyme yes, reaction time 6 h | soymilk, substrate concentration 20%, heat treatment of enzyme no, reaction time 0 h | soymilk, substrate concentration 20%, heat treatment of enzyme no, reaction time 1 h | soymilk, substrate concentration 20%, heat treatment of enzyme no, reaction time 3 h | soymilk, substrate concentration 20%, heat treatment of enzyme no, reaction time 6 h | soymilk, substrate concentration 20%, heat treatment of enzyme yes, reaction time 6 h | soymilk, substrate concentration 30%, heat treatment of enzyme no, reaction time 0 h | soymilk, substrate concentration 30%, heat treatment of enzyme no, reaction time 1 h | soymilk, substrate concentration 30%, heat treatment of enzyme no, reaction time 3 h | soymilk, substrate concentration 30%, heat treatment of enzyme no, reaction time 6 h | soymilk, substrate concentration 30%, heat treatment of enzyme yes, reaction time 6 h

O=c1c(-c2ccc(O)cc2)coc2cc(O[C@@H]3O[C@H](CO)[C@@H](O)[C@H](O)[C@H]3O)ccc12 [diadzin]
49.8%: [25]
53.0%: [6]
53.3%: [15]
49.2%: [21]
2.7%: [22]
2.2%: [12]
not detected: [2] | [3] | [4] | [7] | [8] | [9] | [13] | [14] | [18] | [19] | [23] | [24]
52.8%: [1] | [11] | [20]
52.6%: [5]
0.7%: [17]
52.9%: [16]
53.5%: [10]

Source: patent US7118895B2, “Process for producing aglycon by using diglycosidase and flavor-improved food containing the aglycon and converting agent to be used in the process” (Amano Enzyme Inc., priority 2000, dated 2006)
